Literature values in patent US7960102B2, “Regulated aptamer therapeutics” (Archemix Corp., priority 2002, dated 2011).

Molecular target: N1 aptamer
Conditions: 10 nM labeled N1 aptamer, 1×SB, room temperature, three experiments; read-out: Kd of neomycin for aptamer (protection from T1 cleavage at G27)

Kd: 940 ± 60 nM
Substance: neomycin
